Test results: patent US20100298370A1, “BENZOTHIAZOLYL THIENOPYRIDINE DERIVATIVES AND USES THEREOF” (priority 2006, published 2010)
Entries after “also recorded” stand apart in the source; their conditions may differ.

Experiments:
[1] = tested on: carrageenan-induced paw edema in BALB/c mice; assay: Carrageenan-induced paw edema; assay type: in vivo
Method: FIG. 1 is a graph showing the anti-inflammatory activity of Compounds 1-6 administered to mice intraperitoneally (i.p.) at 20 mg/kg, 1 hour before induction of paw edema (10-12 mice per group). The swelling of paws was measured 4 hours after induction, compared to controls and expressed as difference in paw thickness in mm (y-axis). The results were statistically evaluated by Student's t-test and statistical significance is indicated by one, two or three stars ([…]).
Acute edema was induced in the […] of BALB/c mice (10-12 mice/group) by injecting 0.02 ml of freshly prepared solution of 2% carrageenan (Sigma) under the plantar region of right hind paw (Tones et al., 2000). Carrageenan was injected 60 min after administration of the test compounds. The right paw received 0.02 ml of saline, which served as a control. The paw thickness was measured at 2, 4 and 24 hours after carrageenan challenge using a Mitutoyo engineer's micrometer. The difference between right and left pad was expressed as mean±SEM. Test compounds were injected intraperitoneally (i.p.) (20 mg/kg) in 0.5% Tween 80 in saline and vehicle control group received 0.5% Tween 80 in saline.
Compound 1 reduced paw edema by 33% and the reduction was statistically significant as determined by Student's t-test with […].

[2] = biological target: T1, VEGF binding to heparin (HS-GAG) (Homo sapiens, UniProt P15692); assay: In vitro VEGF to HS-GAG binding assay (ELISA, heparin-BSA coated plate)
T1 construct: purchased Research and Development Systems
T1 sequence (P15692 27-191 isoform P15692-4): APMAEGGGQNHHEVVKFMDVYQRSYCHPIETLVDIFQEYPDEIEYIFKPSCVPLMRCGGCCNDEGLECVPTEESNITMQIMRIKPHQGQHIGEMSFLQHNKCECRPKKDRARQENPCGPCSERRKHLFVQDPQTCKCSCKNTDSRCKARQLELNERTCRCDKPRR
Text: An in vitro assay was used to assess the ability of test compounds of general formulas I and II to inhibit the interaction of VEGF with HS-GAGs. The assay was designed to for determine the concentration required for 50% inhibition (IC-50) for each specific compound. The test compounds were purchased from Life Chemicals Ltd. (Kiev, Ukraine), and the GAG used was heparin (heparin grade I-A; Sigma) conjugated to bovine serum albumin (Sigma) and diluted 1:200 in phosphate-buffered saline (PBS; pH 7.3). The heparin was added to a 96-well polystyrene ELISA plate (NUNC; 0.1 ml per well) and incubated overnight at 4° C. Following the incubation, the plate was washed thoroughly, by immersion, with de-ionized water and then with PBS (pH 7.3) containing Tween 20 (Sigma, 0.05%). The ELISA plate was then blocked with BSA (ICN, 3%, 200 μl per well) for 1 hour at room temperature. Following blocking, the plate was washed with de-ionized water, and then twice with PBS (pH 7.3) containing Tween 20. Recombinant human VEGF (Research and Development Systems) dissolved in PBS supplemented with BSA (0.1%) was added to the ELISA plate. The test compounds were dissolved in DMSO (MERCK), diluted in PBS and added to the wells at concentrations ranging from 0.01 to 200 μM to obtain a final volume 100 μl per well, and incubated for 60 minutes at room temperature with shaking. Following incubation, the plate was washed with de-ionized water and PBS (pH 7.3) containing Tween 20. Anti-human VEGF (1:2000; Research and Development Systems) diluted in PBS supplemented with BSA (1%) was added to the ELISA plate (100 per well) and incubated for 60 minutes at room temperature with shaking. Following incubation, the plate was washed with de-ionized water and then with PBS (pH 7.3) containing Tween 20. Streptavidin-HRP (1:200; Research and Development Systems Cat. No. DY998) diluted in PBS supplemented with BSA (1%) was added to the ELISA plate (100 per well) and incubated for 20 minutes at room temperature with shaking. The plate was then washed with de-ionized water and twice with PBS (pH 7.3) containing Tween 20. The peroxidase substrate chromogen tetramethyl benzidine (TMB; Dako) was added (100 μl per well) to the ELISA plate and incubated at room temperature. After 15 minutes, ELISA Stop Solution (hydrochloric acid 1N, sulfuric acid 3N) was added (100 μl per well) to stop the peroxidase catalyzed colorimetric reaction. The Optical Density (OD) of the samples was measured at 450 nm using an ELISA plate reader (Dynatech MR5000). Data were analyzed with Graphpad Prism software and IC-50 values were determined.
Percent inhibition at 30 μM concentration is shown and for selected compounds IC-50 was established.

[3] = tested on: oxazolone-induced ear swelling in BALB/c mice; assay: Delayed-type hypersensitivity (DTH), oxazolone mouse ear-swelling test; assay type: in vivo; settings: for inhibition of ear swelling (in words): DTH, FIG. 2, oral 50 mg/kg; for reduction of ear swelling: per os 50 mg/kg, 1 hour prior to challenge, after 48 hours
Method: FIG. 2 is a graph showing the anti-inflammatory activity of Compounds 1, 2, 4, 5, 6 administered to mice orally at 50 mg/kg in a model of delayed-type hypersensitivity (DTH) (11-13 mice per group). The results for dexamethasone (10 mg/kg i.p.), a steroid positive control, are also shown. The y-axis represents difference in ear thickness in mm compared to control. The results were statistically evaluated by Student's t-test and statistical significance is indicated by one, two or three stars ([…]).
BALB/c mice (Velaz, Prague, Czech Republic; 8 week-old; 10-15 animals per group) were sensitized by topical application of a 2% oxazolone (4-ethoxymethylene-2-phenyl-2-oxazolin-5-one; Sigma, St Louis, Mo.) solution in acetone/olive oil (4:1 vol/vol) to a shaved abdomen area (50 μl) and to each paw (5 μl)(Lange-Asschenfeldt et al., 2002). Topical oxazolone administration induces immunomodulatory activity. Five days after sensitization, right ears were challenged by topical application of 10 μl of a 1% oxazolone solution, whereas left ears were treated with vehicle alone. Test compounds were administered 1 hour prior to challenge. The extent of inflammation was measured 24 hours and 48 hours after challenge, using the mouse ear-swelling test. Animals were numbered (tail marking) and weighed and the thickness of both ears was recorded with a constant-loading dial micrometer (Mitutoyo, Tokyo). The unpaired Student t-test was used for statistical analyses. Test compounds were administered per os at 50 mg/kg as a suspension with 0.5% methylcellulose. The vehicle control group received the same volume of 0.5% methylcellulose.

[4] = 20 mg/kg i.p., 60 min before carrageenan, 4 hours after induction

IC50 [2] [nM]	inhibition at 30 µM [2] [%]	Structure (SMILES)	reduction of paw edema [1, 4] [%]	reduction of ear swelling [3] [%]	also measured
140	81	CN1CCc2c(sc(NC(=O)c3cc4ccccc4o3)c2-c2nc3ccccc3s2)C1 [Compound 5, N-[3-(2-benzothiazolyl)-4,5,6,7-tetrahydro-6-methylthieno[2,3-c]pyridin-2-yl]-benzo[b]furan-2-carboxamide]	29.2	49.3	inhibition of ear swelling (in words) ([3]; 50 mg/kg): significantly inhibited ear swelling; also recorded: Particularly strong response, comparable with the steroid dexamethasone
	60	CSc1ccc(CC(=O)Nc2sc3c(c2-c2nc4ccccc4s2)CCN(C)C3)cc1 [Compound 3, N-[3-(2-benzothiazolyl)-4,5,6,7-tetrahydro-6-methylthieno[2,3-c]pyridin-2-yl]-2-(4-methylthiophenyl)acetamide]	32.1		
1800	65	COc1cccc(OCC(=O)Nc2sc3c(c2-c2nc4ccccc4s2)CCN(C)C3)c1 [Compound 4, N-[3-(2-benzothiazolyl)-4,5,6,7-tetrahydro-6-methylthieno[2,3-c]pyridin-2-yl]-2-(3-methoxyphenoxy)acetamide]	22.8	33.5	inhibition of ear swelling (in words) [3]: significantly inhibited ear swelling
		C[C@@H]1C[C@H]2[C@@H]3CCC4=CC(=O)C=C[C@]4(C)[C@@]3(F)[C@@H](O)C[C@]2(C)[C@@]1(O)C(=O)CO [dexamethasone, reference compound]			reduction in ear swelling ([3]; dexamethasone positive control, i.p. (10 mg/kg per FIG. 2)): 46.5%
	29	CN1CCc2c(sc(NC(=O)CCN3C(=O)c4ccccc4C3=O)c2-c2nc3ccccc3s2)C1 [Compound 6, N-[3-(2-benzothiazolyl)-4,5,6,7-tetrahydro-6-methylthieno[2,3-c]pyridin-2-yl]-3-(1,3-dihydro-1,3-dioxo-2H-isoindole-2)propanamide]	19.5	19.1	inhibition of ear swelling (in words) [3]: significantly inhibited ear swelling
1700	70	CN1CCc2c(sc(NC(=O)c3cccs3)c2-c2nc3ccccc3s2)C1 [Compound 7, N-[3-(2-benzothiazolyl)-4,5,6,7-tetrahydro-6-methylthieno[2,3-c]pyridin-2-yl]-2-thiophenecarboxamide]		32.7	reduction of paw edema ([1]; 50 mg/kg dose, separate experiment (data not shown)): 18.5%
220	82	CCN1CCc2c(sc(NC(=O)c3ccc(C#N)cc3)c2-c2nc3ccccc3s2)C1 [Compound 1, N-[3-(2-benzothiazolyl)-4,5,6,7-tetrahydro-6-ethylthieno[2,3-c]pyridin-2-yl]-4-cyanobenzamide]	33	41.4	
1700	53	CC(C)N1CCc2c(sc(NC(=O)c3ccc(N(C)C)cc3)c2-c2nc3ccccc3s2)C1 [Compound 2, N-[3-(2-benzothiazolyl)-4,5,6,7-tetrahydro-6-(1-methylethyl)thieno[2,3-c]pyridin-2-yl]-4-(dimethylamino)benzamide]	28.1	18.1	
	29	CN1CCc2c(sc(NC(=O)CN3C(=O)c4ccccc4C3=O)c2-c2nc3ccccc3s2)C1 [Compound 30, N-[3-(2-benzothiazolyl)-4,5,6,7-tetrahydro-6-methylthieno[2,3-c]pyridin-2-yl]-1,3-dihydro-1,3-dioxo-2H-isoindole-2-acetamide]			
	50	O=C(Nc1sc2c(c1-c1nc3ccccc3s1)CCN(Cc1ccccc1)C2)C1COc2ccccc2O1 (stereo not drawn) [Compound 33, N-[3-(2-benzothiazolyl)-4,5,6,7-tetrahydro-6-phenylmethylthieno[2,3-c]pyridin-2-yl]-2,3-dihydro-1,4-benzodioxin-2-carboxamide]			
	35	CCN1CCc2c(sc(NC(=O)c3cc4cc([N+](=O)[O-])ccc4s3)c2-c2nc3ccccc3s2)C1 [Compound 28, N-[3-(2-benzothiazolyl)-4,5,6,7-tetrahydro-6-ethylthieno[2,3-c]pyridin-2-yl]-benzo[b]thiophene-5-nitro-2-carboxamide]			
200	73	CCN1CCc2c(sc(NC(=O)c3cc(OC)c(OC)c(OC)c3)c2-c2nc3ccccc3s2)C1 [Compound 14, N-[3-(2-benzothiazolyl)-4,5,6,7-tetrahydro-6-ethylthieno[2,3-c]pyridin-2-yl]-(3,4,5-trimethoxy)benzamide]			
	64	COc1ccc(C(=O)Nc2sc3c(c2-c2nc4ccccc4s2)CCN(Cc2ccccc2)C3)c(OC)c1 [Compound 13, N-[3-(2-benzothiazolyl)-4,5,6,7-tetrahydro-6-phenylmethylthieno[2,3-c]pyridin-2-yl]-(2,4-dimethoxy)benzamide]			
	39	O=C(Nc1sc2c(c1-c1nc3ccccc3s1)CCN(Cc1ccccc1)C2)c1cc(Cl)sc1Cl [Compound 22, N-[3-(2-benzothiazolyl)-4,5,6,7-tetrahydro-6-phenylmethylthieno[2,3-c]pyridin-2-yl]-3-(2,5-dichloro)thiophenecarboxamide]			
